Results reported in patent US5157052A, “Method for inhibiting IgE production” (priority 1990, dated 1992).

Tested on: MHC Class II
Assay: Splenocyte cell surface density/distribution (FACS): MHC Class II
Type: in vivo, mouse (Balb/c female)
Protocol: One group of 4 unstimulated Balb/c female mice is injected with PBS (Group A). Another (Group B) is injected with 20 μg (±) methyl 11α,16-dihydroxy-16-methyl-9-oxoprosta-5Z,13E-dien-1-oate as in Example 13. […] A 3 cm incision is made with a scalpel above the left hip, and the spleen is cut free from adjoining tissue and placed in a 100 mn plastic culture dish containing 10 ml PBS. The splenic cells are then made into a suspension, by rubbing the spleens between the rough, frosted ends of microscope slides repeatedly until the only remaining particulate matter is connective tissue. Cells are transferred to a 15 ml conical polystyrene tube and centrifuged in a centrifuge at 1200 rpm for 5 minutes. The supernatant is discarded by aspiration and the cell pellet is resuspended in 10 ml PBS, then centrifuged at 1200 rpm for 5 minutes. The supernatant is aspirated and the cell pellet is resuspended in 15 mM Tris, 140 mM Ammonium Chloride, to lyse red blood cells. After incubating at room temperature for 10 minutes the cell suspension is centrifuged at 1200 rpm for 10 minutes. The supernatant is discarded and the cell pellet is resuspended in 10 ml FACS Buffer (PBS containing 0.1% BSA and 0.1% Sodium Azide). The cell suspension is filtered through sterile glass wool plugged in the top of a pasteur pipet. Cells in the flow through are counted using a hemacytometer, then the cell suspension is centrifuged at 1200 rpm for 5 minutes. The supernatant is discarded and the cell pellet is resuspended in a volume of FACS Buffer that will yield 4×10^7 cells/ml. 10 μl (4×10^5 cells) is added to each well of a 96-well V-bottom plate. 25 μl of diluted monoclonal antibody directed against splenocyte cell surface proteins is added to each well: Major Histocompatability Complex (MHC) Class II (M5114, ATCC, Rockville Md.), MHC Class I (M1/42, ATCC), Anti-IgD (JA12.5, ATCC, Rockville, Md.), Thymocyte (Thy)-1 (JIJ, ATCC), B220 (14.8, ATCC), Kappa light chain (187, ATCC), IL-2 Receptor (7D4, ATCC), Lyt-1 (7.313, ATCC) and CD23 (biotinylated B3B4) and incubated on ice for 30 minutes. 100 μl 10% BSA 0.1% sodium azide is added to each well, then the plates are centrifuged at 1200 rpm for 10 minutes. The liquid is removed by aspiration and the cell pellets are resuspended in 100 μl FACS Buffer, and centrifuged at 1200 rpm for 5 minutes. […] Samples are transferred to individual tubes and 10,000 cells are analyzed. Using the Lysis software (Becton Dickinson, Mountain View, Calif.) the mean channel log fluorescence and percent positive cells are determined for the entire cell population. […]

In the case of `CCCCC(C)(O)C/C=C/[C@H]1[C@H](O)CC(=O)[C@@H]1C/C=C\CCCC(=O)OC` (mixture of isomers) [(±) methyl 11α,16-dihydroxy-16-methyl-9-oxoprosta-5Z,13E-dien-1-oate], the “Percentage Positive Cells” value (anti-IgD stimulated mice, 20 μg days 3 and 4, day 7 (PBS 59.8)) is reported as 68.6 ± 5.1%, the “Mean Channel Log Fluorescence” value (anti-IgD stimulated mice, 20 μg days 3 and 4, day 7 (PBS 134)) is reported as 137 ± 15 and the “Percentage Positive Cells” value (unstimulated mice, 20 μg (PBS 56.2)) is reported as 56.9 ± .4%. For the same molecule, the “Mean Channel Log Fluorescence” value (unstimulated mice, 20 μg (PBS 148)) was 149 ± 8.
